According to patent US8329422B2, “Analysis of circulating tumor cells, fragments, and debris” (Veridex LLC, priority 2001, dated 2012):

Legend:
Type in all cases: cell-based
[1] = Viability of LnCaP cells by trypan blue exclusion after culture with paclitaxel; settings: human, LnCaP prostate cell line; LnCaP cells cultured with 40 nM paclitaxel for 72 hours
Description: (§1) To investigate the effect of apoptosis induced by cytotoxic agents on flow cytometric and CELLSPOTTER® analysis of CTC, cells from the prostate cell line LnCaP were cultured in the presence or absence of 40 nM paclitaxel for 72 hours. […] The treated and untreated LnCaP cells were spiked into blood of healthy donors, selected by the ferrofluid methods described above, and analyzed by the CELLSPOTTER® system.

LnCaP cells [2] = experiment: CELLSPOTTER analysis of paclitaxel treated LnCaP cells spiked into blood of healthy donors (model to mimic tumor cell death); settings: immunomagnetically selected
Description: as §1

LnCaP cells [3] = experiment: M30 Cytodeath antibody staining of caspase-cleaved cytokeratin 18; settings: paclitaxel treated LnCaP cells
Description: Cells of the prostate cell line LnCaP were cultured with or without paclitaxel and spiked into blood of healthy donors.

CC(=O)O[C@H]1C(=O)[C@@]2(C)[C@H]([C@H](OC(=O)c3ccccc3)[C@]3(O)C[C@H](OC(=O)[C@H](O)[C@@H](NC(=O)c4ccccc4)c4ccccc4)C(C)=C1C3(C)C)[C@]1(OC(C)=O)CO[C@@H]1C[C@@H]2O [paclitaxel]
viability at 72 h, 40 nM [1]: 33% | signs of apoptosis (morphology, punctate cytokeratin staining) (LnCaP cells [2]): displayed signs of apoptosis | staining with M30 Cytodeath antibody (early apoptosis) (LnCaP cells [3]): stained with M30
